Laboratory results taken from patent US20250144083A1, “METHODS AND COMPOSITIONS FOR TREATING CANCER IN TAXANE-RESISTANT PATIENTS” (MODRA PHARMACEUTICALS B.V., priority 2022, published 2025).
Where “and” joins values, the source holds several entries; their conditions need not be identical. Equal values may be shown once. Entries after “also recorded” stand apart in the source; their conditions may differ. Read-outs that look alike come from different tables or passages of the source. Values belong to the compound of their own block, whether it stands above or below them.

Key:
Assay type in all cases: cell-based
[1] = test system: DU-145 DOC10 prostate cancer cells; experiment: 2D culture docetaxel resistance, DU-145 DOC10 vs DU-145; conditions: 2D setup, DU-145 cells exposed to docetaxel for 3 months
[2] = test system: 22Rv1 prostate cancer cells; experiment: 3D clonogenic assay, parental 22Rv1; conditions: for IC50: Homo sapiens
Experimental: (§1) For the single agent efficacy experiment, a master stock solution of cabazitaxel was prepared by dissolving compound powder in DMSO at a concentration of 10 mM. From this a working stock solution of 0.1 mM (330-fold the highest test concentration) was prepared. Small aliquots of this solution were stored at −20° C. On each day of an experiment, a frozen aliquot of the working stock solution was thawed and stored at room temperature prior to and during treatment. First, serial half-log dilutions of the working stock solution were prepared in DMSO. These dilutions were then diluted 1:22 into cell culture medium in an intermediate dilution plate. Finally, 10 μl taken from the intermediate dilution plate were transferred to 140 μl/well of the final assay plate. Thus, the DMSO working stock was diluted 1:330, and the DMSO concentration in the assay was 0.3% v/v.
For combination experiments, working stock solutions of docetaxel, ritonavir, elacridar, and cabazitaxel were prepared in DMSO at concentrations of 660-fold the highest test concentration used. Small aliquots of this stock solution were stored at −20° C. On each day of an experiment, a frozen aliquot of the working stock solutions was thawed and stored at room temperature prior to and during treatment. First, 1:2 dilutions of 660-fold concentrated working stocks were done in DMSO (in case of monotherapy controls), or equal amounts of the compound working stocks were mixed (in case of drug combinations). Then, different dilutions of these 330-fold concentrated solutions were done in DMSO to give a 8*2 matrix combination layout. The DMSO dilutions were further diluted 1:22 into cell culture medium (IMDM, supplemented with 20% (v/v) fetal calf serum, 50 μg/ml gentamicin) in an intermediate dilution plate. […]
Tumour cell lines were grown at 37° C. in a humidified atmosphere with 5% CO2 in RPMI 1640 medium (Biochrom) supplemented with 10% (v/v) fetal calf serum and 50 μg/ml gentamicin. […] For the assay, cells were harvested using TrypLE and the percentage of viable cells was determined by the CASY TT cell counter (OMNI Life Science). […]

[3] = test system: DU-145 DOC10 prostate cancer cells; experiment: 3D clonogenic assay, docetaxel-resistant DU-145 DOC10; conditions: for Relative Resist to docetaxel: compared to parental DU-145 cells without elacridar; for Relative Resistance to docetaxel / Relative Resistance to cabazitaxel: compared to parental DU-145 cells without ritonavir; for IC50: Homo sapiens
Experimental: as §1
(§2) For combination experiments, working stock solutions of docetaxel, ritonavir, elacridar, and cabazitaxel were prepared in DMSO at concentrations of 660-fold the highest test concentration used. Small aliquots of this stock solution were stored at −20° C. On each day of an experiment, a frozen aliquot of the working stock solutions was thawed and stored at room temperature prior to and during treatment. First, 1:2 dilutions of 660-fold concentrated working stocks were done in DMSO (in case of monotherapy controls), or equal amounts of the compound working stocks were mixed (in case of drug combinations). Then, different dilutions of these 330-fold concentrated solutions were done in DMSO to give a 8*2 matrix combination layout. The DMSO dilutions were further diluted 1:22 into cell culture medium (IMDM, supplemented with 20% (v/v) fetal calf serum, 50 μg/ml gentamicin) in an intermediate dilution plate. Finally, 10 μl taken from the intermediate dilution plate were transferred to 140 μl of cells and medium per well of the final assay plate. Thus, the DMSO dilutions used for the mono- and the combination-treatment were diluted 1:330, and the DMSO concentration in the assay was 0.3% v/v.
(§3) DU-145 DOC10 was generated from DU-145 and 22Rv1 DOC8 was generated from 22Rv1. 22Rv1 was obtained from American Type Culture Collection (ATCC, Rockville, MD, USA), whereas DU-145 was obtained from National Cancer Institute (NCI, Bethesda, MD, USA).
(§4) Tumour cell lines were grown at 37° C. in a humidified atmosphere with 5% CO2 in RPMI 1640 medium (Biochrom) supplemented with 10% (v/v) fetal calf serum and 50 μg/ml gentamicin. Docetaxel resistant sublines were cultured in the presence of 8 nM (22Rv1) or 10 nM docetaxel (DU-145). The cells were routinely passaged once or twice weekly and maintained in culture for up to 20 passages. For the assay, cells were harvested using TrypLE and the percentage of viable cells was determined by the CASY TT cell counter (OMNI Life Science).
(§5) The clonogenic assay was carried out in a 96 well plate format using ultra low attachment plates. For each test, cells were prepared and assay plates were prepared as follows: each test well contained a layer of semi-solid medium with tumour cells (50 μl), and a second layer of medium supernatant with or without test compound (100 μl). The cell layer consisted of 2·10^3 to 3·10^3 tumour cells per well, which were seeded in 50 μl/well cell culture medium (IMDM, supplemented with 20% (v/v) fetal calf serum, 50 μg/ml gentamicin, and 0.4% (w/v) agar). After 24 h, the soft-agar layer was covered with 90 μl of the same culture medium without agar, and 10 μl of control medium or test compound after serial dilution in DMSO and transfer in cell culture medium were added, and left on the cells for the duration of the experiment (continuous exposure, 100 μl drug overlay). Every plate included six untreated control wells and drug-treated groups. Duplicate values were obtained by testing single values per condition on one plate. […]

[4] = test system: 22Rv1 DOC8 prostate cancer cells; experiment: 2D culture docetaxel resistance, 22Rv1 DOC8 vs 22Rv1; conditions: 2D setup, 22Rv1 cells exposed to docetaxel for 3 months
[5] = test system: 22Rv1 DOC8 prostate cancer cells; experiment: 3D clonogenic assay, docetaxel-resistant 22Rv1 DOC8; conditions: for Relative Resist to docetaxel: compared to parental 22Rv1 cells without elacridar; for IC50: Homo sapiens
Experimental: as §1, §2, §3, §4, §5

[6] = test system: DU-145 prostate cancer cells; experiment: 3D clonogenic assay, parental DU-145; conditions: for IC50: Homo sapiens
Experimental: as §1, §2, §3, §4, §5

- fold lower IC50 value (increase in sensitivity to docetaxel) ([3]; DU-145 DOC10, 10 μM ritonavir): 3.4 fold
- fold lower IC50 value (increase in sensitivity) ([3]; DU-145 DOC10, 10 μM ritonavir, cabazitaxel experiment (FIG. 10)): 2.5 fold
- IC50 ([3]; DU-145, DU-145 DOC10, 0.3 μM elacridar, read-out: IC50 value of docetaxel): 1.9 nM
- IC50 ([3]; DU-145, DU-145 DOC10, 1 μM elacridar, read-out: IC50 value of docetaxel): 1.6 nM
- IC50 ([3]; DU-145, DU-145 DOC10, 1 μM ritonavir, read-out: IC50 value of docetaxel): 8.8 nM
- IC50 ([3]; DU-145, DU-145 DOC10, 10 μM ritonavir, read-out: IC50 value of docetaxel): 2.8 nM
- IC50 ([3]; DU-145, DU-145 DOC10, without elacridar (elacridar experiment), read-out: IC50 value of docetaxel): 11.7 nM
- IC50 ([3]; DU-145, DU-145 DOC10, without ritonavir, read-out: IC50 value of docetaxel): 9.5 nM
- fold decrease of relative IC50 value of docetaxel ([5]; 31.6 μM ritonavir, cell line not given): 84 fold
- fold lower IC50 value (increase in sensitivity) ([5]; 22Rv1 DOC8, 32 μM ritonavir, cabazitaxel experiment (FIG. 12)): 14 fold
- fold lower IC50 value (increase in sensitivity to docetaxel) ([5]; 22Rv1 DOC8, 0.3 and 1 μM elacridar): 100 fold
- IC50 ([5]; 22Rv1, 31.6 μM ritonavir, cell line not given, read-out: relative IC50 value of docetaxel): 2.6 nM
- IC50 ([5]; 22Rv1, 22Rv1 DOC8, 0.3 μM elacridar, read-out: IC50 value of docetaxel): 1.4 nM
- IC50 ([5]; 22Rv1, 22Rv1 DOC8, 1 μM elacridar, read-out: IC50 value of docetaxel): 1.3 nM
- IC50 ([5]; 22Rv1, 22Rv1 DOC8, 32 μM ritonavir, read-out: Docetaxel IC50 value): 3 nM
- IC50 ([5]; 22Rv1, 22Rv1 DOC8, without elacridar (elacridar experiment), read-out: IC50 value of docetaxel): 134 nM
- IC50 ([5]; 22Rv1, 22Rv1 DOC8, without ritonavir, read-out: Docetaxel IC50 value): 202 nM
- IC50 ([5]; 22Rv1, without ritonavir, cell line not given, read-out: relative IC50 value of docetaxel): 219 nM
SMILES: CC(=O)O[C@@]12CO[C@@H]1C[C@H](O)[C@@]1(C)C(=O)[C@H](O)C3=C(C)[C@@H](OC(=O)[C@H](O)[C@@H](NC(=O)OC(C)(C)C)c4ccccc4)C[C@@](O)([C@@H](OC(=O)c4ccccc4)[C@H]21)C3(C)C [docetaxel]
- resistance to docetaxel: fold increase in IC50 value compared to parental, untreated cells [1]: ~20 fold and 21 fold and 22 fold
- IC50 ([2]; 22Rv1, without elacridar, from previously performed experiment, read-out: IC50 value of docetaxel): 1.3 nM
- Relative Resist to docetaxel ([3]; DU-145 DOC10, 0.3 μM elacridar): 1.7
- Relative Resist to docetaxel ([3]; DU-145 DOC10, 1 μM elacridar): 1.5
- Relative Resistance to docetaxel ([3]; DU-145 DOC10, 1 μM ritonavir): 3.0
- Relative Resistance to docetaxel ([3]; DU-145 DOC10, 10 μM ritonavir): 1.0
- Relative Resist to docetaxel ([3]; DU-145 DOC10 without elacridar): 11
- Relative Resistance to docetaxel ([3]; DU-145 DOC10 without ritonavir, 3D setup): 3.3
- resistance to docetaxel: fold increase in IC50 value compared to parental, untreated cells [4]: > 100 fold and 105 fold and 134 fold
- resistance to docetaxel, fold ([5]; 3D setup (clonogenic assay), 22Rv1 DOC8 vs parental): 42 fold
- Relative Resist to docetaxel ([5]; 22Rv1 DOC8, 0.3 μM elacridar): 1.1
- Relative Resist to docetaxel ([5]; 22Rv1 DOC8, 1 μM elacridar): 1
- Relative Resist to docetaxel ([5]; 22Rv1 DOC8 without elacridar): 103
- IC50 ([6]; DU-145, DU-145, 0.3 μM elacridar, read-out: IC50 value of docetaxel): 1.1 nM
- IC50 ([6]; DU-145, DU-145, 1 μM elacridar, read-out: IC50 value of docetaxel): 1.1 nM
- IC50 ([6]; DU-145, DU-145, 1 μM ritonavir, read-out: IC50 value of docetaxel): 1.8 nM
- IC50 ([6]; DU-145, DU-145, 10 μM ritonavir, read-out: IC50 value of docetaxel): 1.7 nM
- IC50 ([6]; DU-145, DU-145, without elacridar (elacridar experiment), read-out: IC50 value of docetaxel): 1.1 nM
- IC50 ([6]; DU-145, DU-145, without ritonavir, read-out: IC50 value of docetaxel): 2.9 nM

SMILES: CC(C)c1nc(CN(C)C(=O)N[C@H](C(=O)N[C@@H](Cc2ccccc2)C[C@H](O)[C@H](Cc2ccccc2)NC(=O)OCc2cncs2)C(C)C)cs1 [ritonavir]
- reversal of cabazitaxel resistance ([3]; DU145 DOC10, by ritonavir): reverses cabazitaxel resistance
- ritonavir concentration that inhibits growth ([3]; DU145 DOC10, ritonavir alone): ≥ 10 µM
- reversal of docetaxel resistance ([3]; DU-145 DOC10, by ritonavir): reverses docetaxel resistance
- tumour colony formation ([5]; 100 μM ritonavir, cell line not given): inhibited tumour colony formation completely
- reversal of cabazitaxel resistance ([5]; 22Rv1 DOC8, by ritonavir): completely reverted; also recorded: reverses cabazitaxel resistance
- reversal of docetaxel resistance ([5]; 22Rv1 DOC8, by ritonavir): reverses docetaxel resistance
- ritonavir concentration that inhibits growth ([6]; DU145, ritonavir alone): ≥ 10 µM

SMILES: COc1cc2c(cc1OC)CN(CCc1ccc(NC(=O)c3cccc4c(=O)c5cccc(OC)c5[nH]c34)cc1)CC2 [elacridar]
- reversal of docetaxel resistance ([3]; DU-145 DOC10, by elacridar): reverses docetaxel resistance
- reversal of docetaxel resistance ([5]; 22Rv1 DOC8, by elacridar): reverses docetaxel resistance

- IC50 ([3]; DU-145, DU145 DOC10, 10 μM ritonavir, read-out: IC50 value of cabazitaxel): 0.6 nM
- IC50 ([3]; DU-145, DU145 DOC10, without ritonavir, read-out: IC50 value of cabazitaxel): 1.5 nM
- shift of the IC50 value of cabazitaxel, monotherapy ([3]; printed: DU-145 DOC8 vs. DU-145): 2.7 fold
- IC50 ([5]; 22Rv1, 22Rv1 DOC8, 10 μM ritonavir, read-out: IC50 value of cabazitaxel): 5.2 nM
- IC50 ([5]; 22Rv1, 22Rv1 DOC8, 32 μM ritonavir, read-out: IC50 value of cabazitaxel): 0.7 nM
- IC50 ([5]; 22Rv1, 22Rv1 DOC8, without ritonavir, read-out: IC50 value of cabazitaxel): 9.5 nM
- fold higher relative IC50 value of cabazitaxel, monotherapy ([5]; printed: for 22Rv1 compared to 22Rv1): 14.5 fold
SMILES: CO[C@H]1C(=O)[C@]2(C)[C@@H](OC)C[C@H]3OC[C@@]3(OC(C)=O)[C@H]2[C@H](OC(=O)c2ccccc2)[C@]2(O)C[C@H](OC(=O)[C@H](O)[C@@H](NC(=O)OC(C)(C)C)c3ccccc3)C(C)=C1C2(C)C [cabazitaxel]
- tumour cell growth inhibition, monotherapy ([2]; 22Rv1): inhibited tumour cell growth in a concentration dependent manner
- IC50 ([2]; 22Rv1, without ritonavir, read-out: IC50 value of cabazitaxel): 0.7 nM
- Relative Resistance to cabazitaxel ([3]; DU145 DOC10, 10 μM ritonavir): 1
- Relative Resistance to cabazitaxel ([3]; DU145 DOC10 without ritonavir): 2.5
- tumour cell growth inhibition, monotherapy ([3]; DU-145 DOC10): inhibited tumour cell growth in a concentration dependent manner
- tumour cell growth inhibition, monotherapy ([5]; 22Rv1 DOC8): inhibited tumour cell growth in a concentration dependent manner
- Relative Resistance to cabazitaxel ([5]; 22Rv1 DOC8 without ritonavir, compared to parental 22Rv1 cells without ritonavir): 14
- tumour cell growth inhibition, monotherapy ([6]; DU-145): inhibited tumour cell growth in a concentration dependent manner
- IC50 ([6]; DU-145, DU145, 10 μM ritonavir, read-out: IC50 value of cabazitaxel): 0.3 nM
- IC50 ([6]; DU-145, DU145, without ritonavir, read-out: IC50 value of cabazitaxel): 0.6 nM
